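96-well plates; 48 h exposure; 5 concentrations. Endpoints by linear interpolation between flanking doses. Not reached: highest tested concentration assigned. At the TGI there is no net growth.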
Tests used:
Test in all cases: inhibition of tumour cell growth, NCI panel, 48 h
UACC-62 melanoma = test system: UACC-62 melanoma
SW-620 colon = test system: SW-620 colon
HOP-92 NSCLC = test system: HOP-92 NSCLC
KM12 colon = test system: KM12 colon
DU-145 prostate = test system: DU-145 prostate
786-0 renal = test system: 786-0 renal
NCI-H226 lung = test system: NCI-H226 lung
SK-MEL-28 melanoma = test system: SK-MEL-28 melanoma
HS 578T breast = test system: HS 578T breast
MOLT-4 leukemia = test system: MOLT-4 leukemia
OVCAR-5 ovarian = test system: OVCAR-5 ovarian
SK-MEL-5 melanoma = test system: SK-MEL-5 melanoma
OVCAR-4 ovarian = test system: OVCAR-4 ovarian

| SMILES | TGI (UACC-62 melanoma) [µM] | TGI (SW-620 colon) [µM] | TGI (HOP-92 NSCLC) [µM] | TGI (KM12 colon) [µM] | TGI (DU-145 prostate) [µM] | TGI (786-0 renal) [µM] | TGI (NCI-H226 lung) [µM] | TGI (SK-MEL-28 melanoma) [µM] | TGI (HS 578T breast) [µM] | TGI (MOLT-4 leukemia) [µM] | TGI (OVCAR-5 ovarian) [µM] | TGI (SK-MEL-5 melanoma) [µM] | TGI (OVCAR-4 ovarian) [µM] |
| --- | --- | --- | --- | --- | --- | --- | --- | --- | --- | --- | --- | --- | --- |
| CCOC(=O)CNC(=O)C(CSC(=O)N(O)c1ccc(Cl)cc1)NC(=O)CCC(N)C(=O)OCC (stereo not drawn) | > 50 | > 50 | > 50 | > 50 | > 50 | > 50 | > 50 | > 50 | > 50 | > 50 | > 50 | > 50 |  |
| O=C(/C=C/c1ccc(Oc2cc(C(=O)/C=C/c3ccc(O)cc3)c(O)cc2O)cc1)c1ccc(O)cc1O | 13 | 19.8 | 55.3 | 6.64 | 12.8 | 16 |  | 7.07 | > 100 | > 100 | 16.7 | 17.1 | 28.3 |
| COc1c(=O)cc2cc[nH]c3ccn(C)c1c23 | > 100 | > 100 |  | > 100 | > 100 | > 100 | > 100 | > 100 | > 100 | > 100 | > 100 |  | > 100 |
| NC(=O)C(=O)C1CCC2=C(Sc3ccccc3N2)C1=O (stereo not drawn) | > 100 | > 100 | > 100 | > 100 |  | > 100 |  | > 100 |  | > 100 | > 100 | > 100 | > 100 |
| NS(=O)(=O)c1nnc(NS(=O)(=O)C(F)(F)F)s1 | > 100 | > 100 | > 100 | > 100 | > 100 | > 100 | > 100 | > 100 |  | > 100 | > 100 |  | > 100 |
| CCC1OC2C(CC=C(C)C)=C3OC(C)(O)C(C)(CC)C(OC(C)=O)C3=C3OC(=O)C=C1C32 (stereo not drawn) | 42.1 | > 100 | > 100 | 50 | > 100 | > 100 |  | 59.1 | > 100 | 77.5 | 57.9 | 42.2 | 70.5 |
| O=C1C(Cl)C2(CC(/C=C/c3ccccc3)=NN2c2cccc(S(=O)(=O)O)c2)N1c1nc2ccccc2s1 (stereo not drawn) | 29.8 | 93.6 | 25.4 | 30.9 |  | 31 | 56.2 | > 100 | > 100 | 42.2 | 35.5 | 30.2 | 31.9 |
| CC1(C)CC[C@]2(C)CC[C@]3(C)C(=CC[C@@H]4[C@@]5(C)CCC(=O)C(C)(C)[C@@H]5[C@H](O)C[C@]43C)[C@@H]2C1 | 29.4 | 42.2 | 31.7 | 37.9 | 34.4 | 30.9 |  | 34.8 | 36.8 | > 100 | 30.7 | 31.5 | 34.7 |
| CN(C)C(=NCc1ccccc1)NC#N | > 100 | > 100 | > 100 | > 100 |  | > 100 |  | > 100 |  |  |  | > 100 | > 100 |
| CC(C)(C)C1=CC(C)(n2[nH]c(=O)n(-c3ccccc3)c2=O)C=C(C(C)(C)C)C1=O | > 100 | > 100 | > 100 | > 100 | > 100 | > 100 | > 100 | > 100 | > 100 |  |  | > 100 | > 100 |
| NC1CC(=O)c2c1sc(Cl)c2Cl (stereo not drawn) | > 100 | > 100 |  | > 100 | > 100 | > 100 |  | > 100 |  | > 100 | > 100 | > 100 |  |
| C=C1CC(c2ccc(OCCCN3C(=O)c4ccccc4C3=O)cc2)OC1=O (stereo not drawn) | 4.75 | 2.99 | 2.99 | 16.8 | 16.3 | 5.23 | 11.4 | 3.98 | 20.4 | 4.06 | 25.5 | 20.4 |  |
| COC(=O)c1ccc(S)c(S(=O)(=O)Nc2n[nH]c(N)n2)c1 | > 100 | > 100 | > 100 | > 100 | > 100 | > 100 |  | > 100 | > 100 | > 100 | > 100 | > 100 | > 100 |
| COc1cc(O)c2c(=O)c(O)c(-c3ccc(O)c(OC)c3)oc2c1 |  | > 100 |  | > 100 | > 100 | > 100 | > 100 |  |  | > 25 | > 100 | > 34.9 |  |
| CC(=O)Oc1ccc(/C=C/C(=O)OCCCOC(=O)/C=C/c2ccc(OC(C)=O)c(OC(C)=O)c2)cc1OC(C)=O | > 100 | > 100 | > 100 | > 100 | > 100 | > 100 |  | > 100 | > 100 | > 100 | > 100 | > 100 | > 100 |
| CCOP1(=O)C=C(C)C(Cl)=C(C)C1 (stereo not drawn) | 33.9 | 53.5 | 68.3 | 34.5 |  | 83 | 59.9 | 56.7 |  | 76.1 | > 100 | > 100 | 90.9 |
| C/C(=C\CBr)CCC(Br)C(C)(C)Cl (stereo not drawn) | > 100 | > 100 | > 100 | > 100 |  | > 100 | > 100 | > 100 |  | > 100 | > 100 | > 100 | > 100 |
| CCN(CC)c1ccc2c(c1)Oc1ccc(N(CC)CC)cc1C21Oc2ccccc2-c2c1c1ccccc1n2CC (stereo not drawn) | > 100 | > 100 | 2.12 |  |  | > 100 | > 100 | > 100 |  | > 100 |  | 25.3 | > 100 |
| CC1(C)CNCC(C)(OCc2ccccc2)C(=O)NC(C)(C)CNCC(C)(OCc2ccccc2)C(=O)N1 (stereo not drawn) | > 10 | > 10 | 4.8 | > 10 | > 10 | > 10 | > 10 | > 10 | > 10 | > 10 | > 10 | > 10 |  |
| C[N+]12C=CC=C1C(N1CCCC1)c1scc(-c3ccccc3)c12 (stereo not drawn) | > 100 | > 100 |  | 31.3 | > 100 | > 100 | 28.9 | > 100 | 67.5 | 64.6 | > 100 | 27.6 |  |

Source: PubChem BioAssay (NCI)
